Converted amounts (≈) assume the structure as drawn. The source made the active and inactive calls. No cut-off for these calls is given here.
How the values were obtained:
Artemia = assay: Toxicity against brine shrimp; type: organism-based; conditions: in vivo
[1] = tested on: Agrobacterium tumefaciens; assay: Antitumor activity against Agrobacterium tumefaciens-induced crown gall tumor in potato tubers; type: functional
A549 = assay: Cytotoxicity against human A549 cells; type: functional; conditions: read-out: ED50 (the source's name)
MCF7 = assay: Cytotoxicity against human MCF7 cells; type: functional; conditions: read-out: ED50 (the source's name)
HT-29 = assay: Cytotoxicity against human HT-29 cells; type: functional; conditions: read-out: ED50 (the source's name)

| SMILES | LC50 (Artemia) [ppm] | inhibition (INH) [1] [%] | EC50 (A549) [µg/mL] | EC50 (MCF7) [µg/mL] | EC50 (HT-29) [µg/mL] | inhibition [1] |
| --- | --- | --- | --- | --- | --- | --- |
| C=CC[C@@]12C[C@@H](OC)C(=O)C=C1O[C@@H](c1cc(OC)c(OC)c(OC)c1)[C@H]2C [DYSODANTHIN B] | 334.2 | 52 | 3.68 (≈ 9.47 µM) | 4.09 (≈ 10.5 µM) | 2.76 (≈ 7.1 µM) | – |
| C=CC[C@]12C=C(OC)C(=O)C=C1O[C@@H](c1cc(OC)c3c(c1)OCO3)[C@H]2C | 162.1 | – | > 100 | 79 (≈ 213 µM) | 96.5 (≈ 261 µM) | inactive |
| C=CC[C@@]12C[C@@H](OC)C(=O)C=C1O[C@@H](c1cc(OC)c3c(c1)OCO3)[C@H]2C [DYSODANTHIN A] | 47.53 | 32.2 | 4.23 (≈ 11.4 µM) | 5.51 (≈ 14.8 µM) | 2.39 (≈ 6.42 µM) | – |
| C=CC[C@]1([C@H](C)[C@@H](OC(C)=O)c2cc(OC)c(OC)c(OC)c2)C[C@@H](OC)C=CC1=O [MEGAPHONE ACETATE] | 253.6 | 48.3 | 2.59 | 3.66 | 0.552 | – |
| COc1cccc2c1C(=O)c1c(O)c3c(c(O)c1C2=O)C[C@@](O)(C(=O)CO)C[C@@H]3O[C@H]1C[C@H](N)[C@H](O)[C@H](C)O1 [DOXORUBICIN] | 4.05 | 68.8 | 0.0292 (≈ 0.0537 µM) | 0.115 (≈ 0.212 µM) | 0.0344 (≈ 0.0633 µM) | – |
